Results from BigSolDB 2.1.

O=C1CCc2cc(O)ccc2N1
solubility (mole fraction)
Conditions	in THF	in acetonitrile	in ethanol	in ethyl acetate	in isobutanol	in isopropanol	in methanol	in methyl acetate	in n-butanol	in n-propanol
278.15 K	0.00248	0.000292	0.00214	0.000666	0.00114	0.00186	0.00224	0.00155	0.00181	0.00173
283.15 K	0.00277	0.000345	0.00242	0.000723	0.00134	0.00226	0.0027	0.00172	0.00201	0.00202
288.15 K	0.00307	0.000403	0.00281	0.000792	0.00162	0.0026	0.00309	0.00188	0.00232	0.00236
293.15 K	0.00346	0.00048	0.00324	0.00086	0.00192	0.003	0.00356	0.00209	0.00269	0.0027
298.15 K	0.00383	0.000576	0.00373	0.000927	0.00229	0.00346	0.00412	0.00231	0.00309	0.00314
303.15 K	0.00424	0.000668	0.00431	0.000992	0.00268	0.00395	0.0048	0.00257	0.00357	0.00364
308.15 K	0.00473	0.000784	0.00496	0.00108	0.00316	0.00471	0.00551	0.00287	0.00409	0.00419
313.15 K	0.00526	0.000887	0.00574	0.00115	0.00378	0.0055	0.00648	0.00316	0.00473	0.00482
318.15 K	0.00591	0.00102	0.00664	0.00122	0.00427	0.00631	0.00745	0.00352	0.00543	0.00554
323.15 K	0.00651	0.00118	0.00761	0.00131	0.00493	0.00721	0.00838	0.00391	0.00623	0.00641
